Earlier results, collected in US7442558B2, “Phthalamide-lanthanide complexes for use as luminescent markers” (The Regents of the University of California, priority 1999, dated 2008).
Where “and” joins values, the source holds several entries; their conditions need not be identical. Equal entries are not always repeated. Structures can show the parent of a compound that is named as a salt.

Conditions: in 0.05 M H2SO4; reference standard; cited from earlier work

C=C[C@H]1C[N@@]2CC[C@H]1C[C@H]2[C@H](O)c1ccnc2ccc(OC)cc12 [quinine sulfate]
absolute quantum yield: 0.54 and 0.5460
